Values of other authors, collected in paper PMC9762682, “Tocotrienols: Exciting Biological and Pharmacological Properties of Tocotrienols and Naturally Occurring Compounds, Part II” (Annals of clinical case reports, 2022).
Structures can show the parent of a compound that is named as a salt. Values belong to the molecule of their own block, whether it stands above or below them.

How the values were obtained:
[1] = tested on: T-cells (Jurkat); parameters: method as in PMID 29606130; value at effective dose: unit not given here
[2] = tested on: Hela cells; parameters: method as in PMID 29606130; value at effective dose: unit not given here; conditions: for effective dose / percentage of control at effective dose / value at effective dose: 48 h;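 as to IC50: anti-proliferation of cancer cells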
[3] = tested on: Liver cancer cells; parameters: method as in PMID 29606130; value at effective dose: unit not given here; conditions: for effective dose / percentage of control at effective dose / value at effective dose: 48 h
[4] = tested on: Breast cancer cells; parameters: method as in PMID 29606130; value at effective dose: unit not given here;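 as to IC50: anti-proliferation of cancer cells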
[5] = tested on: B-Lymphocyte cells; parameters: method as in PMID 29606130; value at effective dose: unit not given here;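 as to IC50: anti-proliferation of cancer cells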
[6] = tested on: Lung cancer cells; parameters: method as in PMID 29606130; value at effective dose: unit not given here
[7] = tested on: Prostate cancer cells; parameters: method as in PMID 29606130; value at effective dose: scale not given here; conditions: for effective dose / percentage of control at effective dose / value at effective dose: 48 h;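 as to IC50: anti-proliferation of cancer cells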
[8] = tested on: Melanoma cells; parameters: method as in PMID 29606130
[9] = tested on: Pancreas cancer cells; parameters: method as in PMID 29606130; value at effective dose: unit not given here; conditions: for effective dose / percentage of control at effective dose / value at effective dose: 48 h

percentage of control at IC50 dose [1]: 8%
IC50 [2]: 2.5 µM
percentage of control at IC50 dose [2]: 48%
IC50 [3]: 5 µM
percentage of control at IC50 dose [3]: 45%
IC50 [4]: 10 µM
percentage of control at IC50 dose [4]: 45%
percentage of control at IC50 dose [5]: 5%
percentage of control at IC50 dose [6]: 17%
percentage of control at IC50 dose [7]: 39%
percentage of control at IC50 dose [8]: 25%
IC50 [9]: 40 µM
percentage of control at IC50 dose [9]: 42%
SMILES: COc1cc2c(cc1O)CC[C@@H]1[C@@H]2CC[C@]2(C)[C@@H](O)CC[C@@H]12 [2-Methoxyestradiol]
effective dose [1]: 5 µM
percentage of control at effective dose [1]: 8%
value at effective dose [1]: 31.3 ± 5.7
effective dose [2]: 20 µM
percentage of control at effective dose [2]: 13%
value at effective dose [2]: 4.3 ± 1.5
effective dose [3]: 10 µM
percentage of control at effective dose [3]: 27%
value at effective dose [3]: 19.7 ± 2.1
effective dose [4]: 20 µM
percentage of control at effective dose [4]: 44%
value at effective dose [4]: 8.0 ± 2.0
effective dose [5]: 5 µM
percentage of control at effective dose [5]: 33%
value at effective dose [5]: 4.0 ± 2.0
effective dose [6]: 10 µM
percentage of control at effective dose [6]: 11%
value at effective dose [6]: 2.3 ± 1.5
effective dose [7]: 10 µM
percentage of control at effective dose [7]: 30%
value at effective dose [7]: 1.7 ± 1.5
effective dose [8]: 10 µM
percentage of control at effective dose [8]: 11%
effective dose [9]: 40 µM
percentage of control at effective dose [9]: 42%
value at effective dose [9]: 20.0 ± 2.0

IC50 [1]: 80 µM
percentage of control at IC50 dose [1]: 29%
IC50 [3]: 80 µM
percentage of control at IC50 dose [3]: 56%
IC50 [4]: 80 µM
percentage of control at IC50 dose [4]: 55%
IC50 [5]: 40 µM
percentage of control at IC50 dose [5]: 37%
IC50 [6]: 80 µM
percentage of control at IC50 dose [6]: 44%
IC50 [7]: 80 µM
percentage of control at IC50 dose [7]: 51%
IC50 [8]: 80 µM
percentage of control at IC50 dose [8]: 46%
IC50 [9]: 80 µM
percentage of control at IC50 dose [9]: 54%
SMILES: O=C1C[C@@H]2[C@@H](CO)[C@H](O)C[C@@H]2O1 [(−) Corey Lactone]
effective dose [1]: 40 µM
percentage of control at effective dose [1]: 64%
value at effective dose [1]: 280.3 ± 10.2
effective dose [2]: 80 µM
percentage of control at effective dose [2]: 66%
value at effective dose [2]: 36.0 ± 5.6
effective dose [3]: 80 µM
percentage of control at effective dose [3]: 56%
value at effective dose [3]: 31.7 ± 2.1
effective dose [4]: 40 µM
percentage of control at effective dose [4]: 77%
value at effective dose [4]: 17.7 ± 3.2
effective dose [5]: 20 µM
percentage of control at effective dose [5]: 59%
value at effective dose [5]: 5.3 ± 1.5
effective dose [6]: 40 µM
percentage of control at effective dose [6]: 64%
value at effective dose [6]: 17.3 ± 3.8
effective dose [7]: 40 µM
percentage of control at effective dose [7]: 60%
value at effective dose [7]: 23.3 ± 2.1
effective dose [8]: 40 µM
percentage of control at effective dose [8]: 62%
effective dose [9]: 40 µM
percentage of control at effective dose [9]: 58%
value at effective dose [9]: 30.7 ± 1.2

SMILES: N=C(N)NC(=O)c1nc(Cl)c(N)nc1N [Amiloride-HCL]
effective dose [1]: 20 µM
percentage of control at effective dose [1]: 38%
value at effective dose [1]: 132.7 ± 2.1
IC50 [2]: 10 µM
percentage of control at IC50 dose [2]: 51%
effective dose [2]: 80 µM
percentage of control at effective dose [2]: 36%
value at effective dose [2]: 19.7 ± 1.5
percentage of control at IC50 dose [3]: 56%
effective dose [3]: 40 µM
percentage of control at effective dose [3]: 65%
value at effective dose [3]: 36.7 ± 2.5
IC50 [4]: 40 µM
effective dose [4]: 20 µM
percentage of control at IC50 dose [4]: 52%
percentage of control at effective dose [4]: 61%
value at effective dose [4]: 14.0 ± 5.3
IC50 [5]: 40 µM
effective dose [5]: 20 µM
percentage of control at IC50 dose [5]: 48%
percentage of control at effective dose [5]: 56%
value at effective dose [5]: 5.0 ± 1.0
effective dose [6]: 40 µM
percentage of control at effective dose [6]: 86%
value at effective dose [6]: 23.3 ± 2.5
effective dose [7]: 80 µM
percentage of control at effective dose [7]: 70%
value at effective dose [7]: 27.0 ± 4.6
effective dose [8]: 40 µM
percentage of control at effective dose [8]: 90%
effective dose [9]: 80 µM
percentage of control at effective dose [9]: 69%
value at effective dose [9]: 30.7 ± 1.2

IC50 [7]: 5 µM
percentage of control at IC50 dose [7]: 50%
SMILES: CC1(C)S[C@@H]2[C@H](NC(=O)[C@H](N)c3ccccc3)C(=O)N2[C@H]1C(=O)O [Ampicillin]
effective dose [1]: 20 µM
percentage of control at effective dose [1]: 94%
value at effective dose [1]: 450.3 ± 15.6
effective dose [2]: 80 µM
percentage of control at effective dose [2]: 88%
value at effective dose [2]: 47.7 ± 5.5
effective dose [3]: 40 µM
percentage of control at effective dose [3]: 88%
value at effective dose [3]: 70.3 ± 4.2
effective dose [4]: 40 µM
percentage of control at effective dose [4]: 74%
value at effective dose [4]: 16.7 ± 6.1
effective dose [5]: 10 µM
percentage of control at effective dose [5]: 66%
value at effective dose [5]: 44.7 ± 5.1
effective dose [6]: 80 µM
percentage of control at effective dose [6]: 85%
value at effective dose [6]: 21.3 ± 1.5
effective dose [7]: 20 µM
percentage of control at effective dose [7]: 41%
value at effective dose [7]: 15.0 ± 1.0
effective dose [8]: 20 µM
percentage of control at effective dose [8]: 70%
effective dose [9]: 80 µM
percentage of control at effective dose [9]: 74%
value at effective dose [9]: 35.3 ± 5.0

IC50 [6]: 10 µM
percentage of control at IC50 dose [6]: 49%
SMILES: O=C1O[C@H]([C@@H](O)CO)C(O)=C1O [Ascorbic Acid]
effective dose [1]: 40 µM
percentage of control at effective dose [1]: 89%
value at effective dose [1]: 451.3 ± 32.4
effective dose [2]: 80 µM
percentage of control at effective dose [2]: 64%
value at effective dose [2]: 21.0 ± 0.1
effective dose [3]: 80 µM
percentage of control at effective dose [3]: 90%
value at effective dose [3]: 74.3 ± 2.5
effective dose [4]: 40 µM
percentage of control at effective dose [4]: 73%
value at effective dose [4]: 15.0 ± 1.7
effective dose [5]: 20 µM
percentage of control at effective dose [5]: 62%
value at effective dose [5]: 17.3 ± 2.5
effective dose [6]: 20 µM
percentage of control at effective dose [6]: 46%
value at effective dose [6]: 15.0 ± 4.4
effective dose [7]: 80 µM
percentage of control at effective dose [7]: 81%
value at effective dose [7]: 29.3 ± 2.1
effective dose [8]: 80 µM
percentage of control at effective dose [8]: 81%
effective dose [9]: 80 µM
percentage of control at effective dose [9]: 71%
value at effective dose [9]: 42.3 ± 2.5

IC50 [2]: 20 µM
percentage of control at IC50 dose [2]: 54%
IC50 [5]: 5 µM
percentage of control at IC50 dose [5]: 45%
IC50 [6]: 2.5 µM
percentage of control at IC50 dose [6]: 47%
IC50 [7]: 2.5 µM
percentage of control at IC50 dose [7]: 45%
SMILES: C[C@@H]1C[C@H]2[C@@H]3CCC4=CC(=O)C=C[C@]4(C)[C@@]3(F)[C@@H](O)C[C@]2(C)[C@@]1(O)C(=O)CO [Dexamethasone]
effective dose [1]: 40 µM
percentage of control at effective dose [1]: 71%
value at effective dose [1]: 282.0 ± 21.7
effective dose [2]: 80 µM
percentage of control at effective dose [2]: 53%
value at effective dose [2]: 18.0 ± 4.0
effective dose [3]: 80 µM
percentage of control at effective dose [3]: 93%
value at effective dose [3]: 67.3 ± 4.0
effective dose [4]: 80 µM
percentage of control at effective dose [4]: 85%
value at effective dose [4]: 15.7 ± 3.1
effective dose [5]: 10 µM
percentage of control at effective dose [5]: 41%
value at effective dose [5]: 61.0 ± 3.6
effective dose [6]: 20 µM
percentage of control at effective dose [6]: 76%
value at effective dose [6]: 16.7 ± 2.1
effective dose [7]: 20 µM
percentage of control at effective dose [7]: 32%
value at effective dose [7]: 16.7 ± 1.5
effective dose [8]: 40 µM
percentage of control at effective dose [8]: 74%
effective dose [9]: 20 µM
percentage of control at effective dose [9]: 73%
value at effective dose [9]: 34.7 ± 4.0
